# Patent publication US20250031733A1, “Mint Flavor Compositions” (The Procter & Gamble Company, priority 2020, published 2025)
# Legend:
# [1] = Comparison of cooling attributes of (−)-menthol and racemic menthol in toothpaste (Crest Cavity formulation); assay type: in vivo
# Description: The following data helps support the use of racemic menthol to reduce costs of mint flavor compositions herein described. From internal unpublished research, Table B compares replacing (−)-menthol with a racemic menthol in a 1:1 in a toothpaste formulation. Such a direct replacement is not preferred given the reduced cooling profile and olfactory differences; however, a portion of L-menthol is preferably replaced by racemic-menthol to gain cost efficiency while minimizing impact to the overall mint flavor profiles.
# This value represents the concentration of a coolant where 50% of its maximal cooling is observed.
# [2] = Expert sensory testing of racemic menthol vs (−)-menthol in toothpaste (CREST Cavity) with standard spearmint flavor; assay type: in vivo
# Protocol: In separate, unpublished internal experiments, perceptual experiences of racemic menthol are quantified via expert sensory testing. The use of a standard spearmint flavor (minimizing extra menthol contribution) compared racemic menthol to (−)-menthol in a toothpaste formulation (CREST Cavity). There are several sensory observations taken from these experiments. […] These aromatic notes appear during brushing and disappear after 5-10 minutes post expectoration and are more pronounced as concentrations increase.
smiles,measurement,setting,value
CC1CCC(C(C)C)C(O)C1 (racemic) [Racemic Menthol],Potency compared to L-Menthol,[1],~0.65-0.7x
same,Time Point at Maximum Cooling,[1],~1 min
same,Maximum Cooling (0-60 scale),"[1]; 60 = greatest amount of cooling, 0 = least",35
same,EC 50,[1]; concentration of coolant where 50% of maximal cooling is observed,"1,250 to 1,500 parts per million"
same,Maximum Longevity,[1]; cooling,Up to 20 minutes
same,less potent than (−)-menthol for cooling,[2],25-30%
